Where two headings read alike, the source gives them in different places.
How the values were obtained:
[1] = system: A549 non-small cell lung cancer cell line; assay: Proliferation of A549 (CellTiter Glo); format: cell-based; conditions: Homo sapiens, read-out: IC50 μM (A549 Cell Line)
Protocol: The diterpenoid compounds were tested in A549, a non-small cell lung cancer cell line harboring a K-Ras activating mutation. Briefly, A549 cells at a density of 1,000 cells/well were seeded in 96-well plates and incubated at 37° C. for 24 hours. A series of different concentrations of compound stocks (500×) were prepared by 3-fold serial dilution in DMSO. These compounds were further diluted in culture media and then added to cells so that the final DMSO concentration was not exceeding 0.25%. After 96 hours of incubation, 50 μL of CellTiter Glo reagent (Promega) was added to each well and luminescence was measured after 10 minutes using EnVision (PerkinElmer). Luminescence from cells treated with DMSO alone was set as Max and % of inhibition was calculated as follows: Inhibition %=(Max−Sample value)/Max×100. Data was analyzed using XL-fit software (ID Business Solutions Ltd.) and IC50, relative IC50, and % of top inhibition was calculated. Some of the compounds in this disclosure were very potent in blocking proliferation of A549 lung cancer cells at low nM range. In addition, potency of inhibiting A549 proliferation correlated well with its binding affinity to PKCs for this series of compounds. In other words, higher affinity binders had stronger inhibitory effects on A549 proliferation. This further support the notion that activation, rather than inhibition, of certain PKC isoforms is required to block proliferation of cancer cells, some of which may harbor K-Ras mutations. This is in sharp contrast to previous literature and common belief that inhibition of PKC is necessary to block cancer cell growth (Kang, 2014, New Journal of Science, 2014:1-36). Data presented here is in agreement with recent findings that many loss-of-function but not gain-of-function mutations of PKC isoforms have been identified in many human cancers (Antal et al., 2015, Cell, 160:489-502).

[2] = biological target: T1, C1b domain of human PKCα (Homo sapiens, UniProt P17252); assay: biochemical; format: binding; conditions: Ki PKCα, 3H-PDBu competition
T1 construct: Genes encoding C1b domains of human PKCα, δ, ε, θ, and PKD1 (PKCμ) were synthesized; made in house; host or cells: E. coli BL21(DE3)
Protocol: (§1) Compounds described in this disclosure were tested for binding affinity to C1b domain of PKC isoforms. Compound binding affinity to C1b domain of PKC isoforms was derived from competitive binding assay using radioactive tracer ^3H-PDBu and recombinant GST-C1b or full-length of human PKC proteins based on modified procedures from Methods in Molecular Biology, vol.
(§2) Genes encoding C1b domains of human PKCα, δ, ε, θ, and PKD1 (PKCμ) were synthesized and inserted into pGEX-2TK or pGEX-4T1 vectors for expression and production of GST-C1b proteins in E. coli BL21(DE3) via IPTG induction. The target proteins were purified by glutathione sepharose 4B and followed by ion exchange chromatography if needed to achieve purity >70%. Aliquots of the purified proteins were stored at −80 degree for binding assay (storage buffer: 20 mM Tris pH 8.0, 200 mM NaCl, 10% glycerol, 1 mM DTT).
The plate was incubated at 37° C. on a shaker at 300 rpm for 10 minutes and then put on ice for 20 minutes. […] The bottom of the filter plate was sealed and 50 μL of MicroScint-20 (PerkinElmer) cocktail was added to each well. ^3H-PDBu trapped in each well was counted using PerkinElmer MicroBeta2 Reader. […] Kd is the binding affinity of each protein preparation to ^3H-PDBu, determined experimentally.

[3] = biological target: T2, C1b domain of human PKCδ (Homo sapiens, UniProt Q05655); assay: Competitive 3H-PDBu binding to C1b domain of PKCδ; conditions: Ki PKCδ, 3H-PDBu competition
T2 construct: Genes encoding C1b domains of human PKCα, δ, ε, θ, and PKD1 (PKCμ) were synthesized; made in house; host or cells: E. coli BL21(DE3)
Protocol: as §1, §2
(§3) The plate was incubated at 37° C. on a shaker at 300 rpm for 10 minutes and then put on ice for 20 minutes. […] The bottom of the filter plate was sealed and 50 μL of MicroScint-20 (PerkinElmer) cocktail was added to each well. ^3H-PDBu trapped in each well was counted using PerkinElmer MicroBeta2 Reader. Data were analyzed using GraphPad Prism5 with the model “log(inhibitor) vs. response-variable slope” to fit the IC50, and then IC50 was transformed to Ki using Cheng-Prusoff equation: Ki=IC50/(1+added radio ligand/Kd). Kd is the binding affinity of each protein preparation to ^3H-PDBu, determined experimentally.

[4] = biological target: T3, C1b domain of human PKD1 (PKCμ) (Homo sapiens, UniProt Q15139); assay: biochemical; format: binding
T3 construct: Genes encoding C1b domains of human PKCα, δ, ε, θ, and PKD1 (PKCμ) were synthesized; made in house; host or cells: E. coli BL21(DE3)
T3 sequence (Q15139 270-320 limits assumed): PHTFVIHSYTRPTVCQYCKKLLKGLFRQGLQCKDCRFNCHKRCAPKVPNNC
Protocol: as §1, §2, §3

[5] = A549, 96 hours incubation, CellTiter Glo

T2 sequence (Q05655 230-280 limits assumed): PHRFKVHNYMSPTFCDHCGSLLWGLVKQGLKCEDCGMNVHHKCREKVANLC

| SMILES | IC50 ([1]; A549, 96 h) [µM] | Ki [2] [µM] | Ki [3] [µM] | Ki [4] [µM] | IC50 [1, 5] [µM] |
| --- | --- | --- | --- | --- | --- |
| CSC[C@H](N)C(=O)O[C@@]12C[C@@H](C)[C@@]3(O)[C@@H](C=C(CO)C[C@]4(O)C(=O)C(C)=C[C@@H]34)[C@@H]1C2(C)C [Compound K101-C1339] | 5 to 10 | 4 to 6 | 0.2 to 0.4 | – | – |
| CC1=C[C@H]2[C@@]3(O)[C@H](C)C[C@]4(OC(=O)[C@@H](N)Cc5c[nH]c6ccccc56)[C@H]([C@@H]3C=C(CO)C[C@]2(O)C1=O)C4(C)C [Compound K101-C1340] | 10 to 30 | 0.2 to 0.4 | 0.001 to 0.03 | 0.005 to 0.01 | – |
| CC1=C[C@H]2[C@@]3(O)[C@H](C)C[C@]4(OC(=O)[C@H](N)Cc5c[nH]c6ccccc56)[C@H]([C@@H]3C=C(CO)C[C@]2(O)C1=O)C4(C)C [Compound K101-C1341] | 10 to 30 | 1 to 2 | 0.03 to 0.06 | 0.001 to 0.03 | – |
| CC1=C[C@H]2[C@@]3(O)[C@H](C)C[C@]4(OC(=O)C[C@H](N)c5ccccc5)[C@H]([C@@H]3C=C(CO)C[C@]2(O)C1=O)C4(C)C [Compound K101-C1343] | 1 to 2 | 1 to 2 | 0.03 to 0.06 | 0.001 to 0.03 | – |
| CC1=C[C@H]2[C@@]3(O)[C@H](C)C[C@]4(OC(=O)C[C@@H](N)Cc5ccccc5)[C@H]([C@@H]3C=C(CO)C[C@]2(O)C1=O)C4(C)C [Compound K101-C1344] | 1 to 2 | 1 to 2 | 0.03 to 0.06 | 0.001 to 0.03 | – |
| CC1=C[C@H]2[C@@]3(O)[C@H](C)C[C@]4(OC(=O)[C@H](O)Cc5ccccc5)[C@H]([C@@H]3C=C(CO)C[C@]2(O)C1=O)C4(C)C [Compound K101-C1355] | 2 to 5 | – | 0.1 to 0.2 | 0.03 to 0.06 | – |
| CN[C@@H](CC1CCCCC1)C(=O)O[C@@]12C[C@@H](C)[C@@]3(O)[C@@H](C=C(CO)C[C@]4(O)C(=O)C(C)=C[C@@H]34)[C@@H]1C2(C)C [Compound K101-C1364] | 0.2 to 0.6 | 0.2 to 0.4 | 0.001 to 0.03 | – | – |
| CC1=C[C@H]2[C@@]3(O)[C@H](C)C[C@]4(OC(=O)[C@@H](N)C56CC(C(F)(F)F)(C5)C6)[C@H]([C@@H]3C=C(CO)C[C@]2(O)C1=O)C4(C)C [Compound K101-C1375] | – | – | – | – | 0.06 to 0.1 |
| CC1=C[C@H]2[C@@]3(O)[C@H](C)C[C@]4(OC(=O)[C@@H](N)CCc5ccccc5)[C@H]([C@@H]3C=C(CO)C[C@]2(O)C1=O)C4(C)C [Compound K101-C135602] | – | 0.2 to 0.4 | 0.001 to 0.03 | – | – |
| CC1=C[C@H]2[C@@]3(O)[C@H](C)C[C@]4(OC(=O)[C@H](N)C56CC(F)(C5)C6)[C@H]([C@@H]3C=C(CO)C[C@]2(O)C1=O)C4(C)C [Compound K101-C137301] | – | – | – | – | 10 to 30 |
| CC1=C[C@H]2[C@@]3(O)[C@H](C)C[C@]4(OC(=O)[C@@H](N)C56CC(F)(C5)C6)[C@H]([C@@H]3C=C(CO)C[C@]2(O)C1=O)C4(C)C [Compound K101-C137302] | – | – | – | – | 10 to 30 |
| CC1=C[C@H]2[C@@]3(O)[C@H](C)C[C@]4(OC(=O)[C@@H](N)C5Cc6ccccc6C5)[C@H]([C@@H]3C=C(CCl)C[C@]2(O)C1=O)C4(C)C [K101-C1329-Cl] | – | – | – | – | 0.06 to 0.1 |
| CC1=C[C@H]2[C@@]3(O)[C@H](C)C[C@]4(OC(=O)[C@H](N)CCCCCCc5ccccc5)[C@H]([C@@H]3C=C(COC(=O)[C@@H](N)C(C)C)C[C@]2(O)C1=O)C4(C)C [K101-C134801C2003] | – | – | – | – | 0.03 to 0.06 |

Source: patent publication US20220411362A1, “DITERPENOID COMPOUNDS THAT ACT ON PROTEIN KINASE C (PKC)” (K-Gen, Inc., priority 2019, published 2022)
